From paper PMC5144071, “Functional characterization of aconitase X as a cis-3-hydroxy-L-proline dehydratase” (Scientific Reports, 2016)

Columns and labels:
[1] = target: T1, PaLhpI (aconitase X, AcnX Type I; cis-3-hydroxy-L-proline dehydratase) (Pseudomonas aeruginosa, UniProt Q9I485); assay: substrate turnover by purified enzyme (HPLC), coupled with reductase; format: biochemical; design: gene lhpI; N-terminal (His)6-tagged recombinant protein
TrLhpI (AcnX Type I) = target: T2, TrLhpI (AcnX Type I) (Trichoderma reesei, UniProt G0REW7); assay: substrate turnover by purified enzyme (amino acid analyzer, Lineweaver-Burk kinetics); format: biochemical
T2 construct: gene lhpI; N-terminal (His)6-tagged recombinant protein
T2 sequence (G0REW7 1-596): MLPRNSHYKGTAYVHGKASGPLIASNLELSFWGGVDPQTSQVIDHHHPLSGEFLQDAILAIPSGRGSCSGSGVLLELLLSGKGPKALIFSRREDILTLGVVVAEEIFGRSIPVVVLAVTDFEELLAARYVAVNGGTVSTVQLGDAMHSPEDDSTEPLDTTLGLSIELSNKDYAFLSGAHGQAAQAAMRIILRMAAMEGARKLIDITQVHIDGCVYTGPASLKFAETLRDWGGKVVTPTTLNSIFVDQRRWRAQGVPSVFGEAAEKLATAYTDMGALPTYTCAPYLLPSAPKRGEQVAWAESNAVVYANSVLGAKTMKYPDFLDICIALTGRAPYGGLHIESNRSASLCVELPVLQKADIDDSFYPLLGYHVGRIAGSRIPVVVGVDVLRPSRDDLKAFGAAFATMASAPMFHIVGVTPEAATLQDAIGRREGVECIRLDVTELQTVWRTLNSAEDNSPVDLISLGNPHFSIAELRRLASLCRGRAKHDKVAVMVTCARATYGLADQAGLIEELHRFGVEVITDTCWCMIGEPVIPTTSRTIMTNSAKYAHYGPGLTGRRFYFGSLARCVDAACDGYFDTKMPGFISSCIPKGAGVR

AtLhpI (AcnX Type I) = target: T3, AtLhpI (AcnX Type I) (Agrobacterium fabrum, UniProt A9CH00); assay: substrate turnover by purified enzyme, Lineweaver-Burk kinetics; format: biochemical
T3 construct: gene lhpI; N-terminal (His)6-tagged recombinant protein
T3 sequence (A9CH00 1-569): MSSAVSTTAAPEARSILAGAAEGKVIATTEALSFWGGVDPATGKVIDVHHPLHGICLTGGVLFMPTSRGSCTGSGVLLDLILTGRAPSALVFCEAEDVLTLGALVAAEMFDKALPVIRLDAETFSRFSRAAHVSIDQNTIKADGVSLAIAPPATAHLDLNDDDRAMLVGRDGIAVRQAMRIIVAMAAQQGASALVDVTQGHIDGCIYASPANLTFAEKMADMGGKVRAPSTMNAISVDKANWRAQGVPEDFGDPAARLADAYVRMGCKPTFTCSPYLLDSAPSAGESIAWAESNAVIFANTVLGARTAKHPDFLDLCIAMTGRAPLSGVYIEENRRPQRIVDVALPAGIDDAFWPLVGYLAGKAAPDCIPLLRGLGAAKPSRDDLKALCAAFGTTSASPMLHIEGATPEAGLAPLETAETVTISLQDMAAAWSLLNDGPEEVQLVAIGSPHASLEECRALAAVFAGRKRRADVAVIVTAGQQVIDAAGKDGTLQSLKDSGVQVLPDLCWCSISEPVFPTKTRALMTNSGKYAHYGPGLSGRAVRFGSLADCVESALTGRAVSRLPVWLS

[2] = target: T1, PaLhpI (aconitase X, AcnX Type I; cis-3-hydroxy-L-proline dehydratase); assay: substrate turnover by purified enzyme (HPLC/amino acid analyzer, 1H NMR, coupled assay); format: biochemical; design: gene lhpI; N-terminal (His)6-tagged recombinant protein
[3] = target: T1, PaLhpI (aconitase X, AcnX Type I; cis-3-hydroxy-L-proline dehydratase); design: gene lhpI
PaLhpL = target: T4, PaLhpL (Pseudomonas aeruginosa, UniProt Q9I489); assay: bifunctional dehydratase and 2-epimerase activity (details in supplement, Fig. S6); format: biochemical
T4 construct: gene lhpL
T4 sequence (Q9I489 1-344): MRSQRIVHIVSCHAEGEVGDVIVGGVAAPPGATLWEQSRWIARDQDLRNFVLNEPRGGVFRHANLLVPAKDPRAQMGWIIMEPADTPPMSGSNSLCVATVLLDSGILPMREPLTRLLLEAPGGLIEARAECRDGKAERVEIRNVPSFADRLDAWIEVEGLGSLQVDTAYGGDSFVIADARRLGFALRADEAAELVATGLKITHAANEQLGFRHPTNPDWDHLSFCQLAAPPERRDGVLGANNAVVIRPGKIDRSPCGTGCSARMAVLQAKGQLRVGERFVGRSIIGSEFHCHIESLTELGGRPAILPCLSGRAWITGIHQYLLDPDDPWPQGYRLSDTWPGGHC

T1 sequence (Q9I485 whole entry): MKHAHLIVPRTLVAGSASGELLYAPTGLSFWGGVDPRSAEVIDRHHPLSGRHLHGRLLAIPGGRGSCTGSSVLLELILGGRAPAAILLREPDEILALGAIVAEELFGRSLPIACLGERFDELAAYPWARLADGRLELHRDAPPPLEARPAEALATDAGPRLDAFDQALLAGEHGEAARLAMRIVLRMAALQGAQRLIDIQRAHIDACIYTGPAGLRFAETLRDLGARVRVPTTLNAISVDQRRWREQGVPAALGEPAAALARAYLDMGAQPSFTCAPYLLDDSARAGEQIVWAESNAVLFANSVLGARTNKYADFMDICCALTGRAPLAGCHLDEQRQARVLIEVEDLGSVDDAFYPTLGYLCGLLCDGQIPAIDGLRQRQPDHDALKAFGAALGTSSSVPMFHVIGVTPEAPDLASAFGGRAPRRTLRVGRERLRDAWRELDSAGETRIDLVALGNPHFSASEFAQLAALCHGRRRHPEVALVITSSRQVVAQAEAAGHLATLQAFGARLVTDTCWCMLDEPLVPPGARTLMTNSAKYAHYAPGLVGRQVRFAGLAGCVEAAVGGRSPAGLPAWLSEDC

In the case of `O=C(O)[C@H]1NC[C@@H](O)[C@H]1O` [2,3-cis-3,4-cis-3,4-dihydroxy-L-proline], the “substrate turnover by purified enzyme (HPLC), coupled with reductase” value [1] is reported as 0.130 µmol/min/mg.

In the case of `O=C(O)[C@H]1NCC[C@H]1O` [cis-3-hydroxy-L-proline], the “substrate turnover by purified enzyme (amino acid analyzer, Lineweaver-Burk kine)” value (TrLhpI (AcnX Type I)) is reported as 3.75 µmol/min/mg, the “substrate turnover by purified enzyme, Lineweaver-Burk kinetics” value (AtLhpI (AcnX Type I)) is reported as “among eight proline derivatives (Fig. S1), only cis-3-hydroxy-L-proline was consumed in a time-dependent manner by both proteins” and the “substrate turnover by purified enzyme (HPLC/amino acid analyzer, 1H NMR, coupled)” value [2] is reported as 39.5 µmol/min/mg.

With `O=C(O)c1ccc[nH]1` [pyrrole-2-carboxylate] the IC50 [3] was ~ 440-fold that of Cd^2+ (2.05 × 10^−3 mM).

For `O=C(O)[C@H]1NCC[C@@H]1O` [trans-3-hydroxy-L-proline], the “bifunctional dehydratase and 2-epimerase activity (details in supplement, Fig. S)” value (PaLhpL) was “PaLhpL gene (PA1255; Fig. 1d) in the L-hydroxyproline gene cluster encodes a bifunctional dehydratase and 2-epimerase toward trans-3-hydroxy-L-proline”.
